# US20240000745A1, “COMPOSITIONS AND METHODS USING A COMBINATION OF OLEUROPEIN AND QUERCETIN FOR CELLULAR ENERGY” (SOCIETE DES PRODUITS NESTLE S.A., priority 2020, published 2024)
# Test system: HeLa cells
# Test: Mitochondrial calcium elevation in histamine-stimulated HeLa cells (mitochondrially targeted aequorin luminescence)
# Format: cell-based
# Procedure: To test the effect of oleuropein (or oleuropein aglycone), quercetin and their combination in living cells, the inventors measured mitochondrial calcium elevation in HeLa cells. HeLa cells were purchased from ATCC. HeLa cells were seeded in 96-well plates at a density of 50000 cells per well in minimal essential medium (DMEM, Gibco), high glucose, +10% fetal calf serum.
# Mitochondrial calcium measurements were carried out using Hela cells infected with the adenovirus (from Sirion biotech) expressing the mitochondrially targeted calcium sensor mitochondrial mutated aequorin (Montero et al., 2004). For aequorin reconstitution, 24 hours after infection, cells were incubated for 2 h at room temperature (22±° C.) in standard medium (145 mM NaCl, 5 mM KCl, 1 mM MgCl2, 1 mM CaCl2, 10 mM glucose and 10 mM Hepes, pH 7.4) with 1 μM wild-type coelenterazine.
# For treatment, compounds were directly added to the cell culture or myotubes cultures 2 hours before measurements. Luminescence was measured at the FLIPR Tetra Aequorin (Molecular Devices). […] Calibration of the luminescence data into calcium concentration was carried out using an algorithm, as described previously (Alvarez & Montero, 2002). Custom module analysis based on Excel (Microsoft) and GhaphPad Prism 7.02 (GraphPad) software was used for quantification.
smiles,measurement,setting,value
C/C=C1/C(O)OC=C(C(=O)OC)[C@H]1CC(=O)OCCc1ccc(O)c(O)c1 (mixture of isomers) [oleuropein aglycone],synergism with quercetin to activate mitochondria via mitochondrial Ca2+ rise (measured effect of the combination vs. theoretical sum of the single effects),"3 μM + 3 μM quercetin, integrated mitochondrial calcium rise evoked by 100 μM histamine, HeLa cells, compounds added 2 hours before measurement, P<0.05",synergizes with quercetin
same,"level of synergism in combination with quercetin, compared between oleuropein and oleuropein aglycone","synergisms calculated as in FIG. 1 and FIG. 2, n=6, NS at P<0.05 (Student's t-test)",same level of synergism
